The values below come from article PMC12013366, “In vitro evaluation of the immunogenic potential of gramicidin S and its photocontrolled analogues” (RSC Medicinal Chemistry, 2025).

As a reminder, the IC50 is the concentration that inhibits the measured activity by half.

Structures are written as SMILES. Where two headings read alike, the source gives them in different places. Non-standard residues stand in square brackets, D forms with d. Residues, ends and D or L forms follow the SMILES beside them. Orn = NCCC[C@H](N)C(=O)O

Data set [1] is described as follows: Cytotoxicity, two-dimensional (monolayer) assay. Type of data set: cell-based. To be noted: human, HEK-293 cells, HEK-293 monolayer, necrotic cells by PI/Hoechst 33342 imaging, ± SEM, n=4, read-out: IC50, cytotoxic activity, two-dimensional assay; for IC50 at 10 min: 10 mins incubation; for IC50 at 1 h: 1 h incubation; for IC50 at 24 h: 24 hrs incubation; for IC50 at 72 h: 72 hrs incubation. On the procedure: Screening of the cytotoxic activity of compounds in a two-dimensional (2D) format was designed in accordance with the previously obtained data[32] for the HeLa cell line. The cytotoxic action of peptides was quantified in the 96-well plate format at four time points after adding compounds – at 10 min, 1 h, 24 h and 72 h. […] The selected IC50 values for different incubation times are exemplified in Fig. 2.
Essential experimental details have been previously published by us.[79]
The cells were maintained in a culture till 70–80% confluence was reached and then seeded in a 96-well black-wall transparent-bottom plate (6055302, Revvity) with 200 μL of appropriate medium per well. The seeding density has been previously determined in the optimization experiments for each cell line: 3500 cells per well for 4T1; 20 000 cells per well for HEK-293; 20 000 cells per well for HeLa; 25 000 cells per well for HepG2; 8000 cells per well for LLC; 15 000 cells per well for MDA-MB-231. After 24 h incubation at 37 °C, the medium was removed and 100 μL of fresh medium was added. Two-fold serial dilution of compounds (256–0.5 μM, 11 points for closed forms of photoswitchable peptides; 128–0.25 μM, 11 points for open forms; 64–0.5, 8 points for GS) in the medium was prepared and dispensed in 100 μL per well. The plates were incubated with compounds for 10 min, 1 h, 24 h and 72 h. The staining solution consisting of 25 μM of Hoechst 33342 (62249, Thermo Fisher), 5 μM of propidium iodide (J66764-MC, Thermo Fisher) or ethidium homodimer-1 (E1169, Thermo Fisher), with 10% FBS in DPBS (21600044, Thermo Fisher) was prepared and added to wells in a volume of 50 μL for 20 min. Fluorescence images were acquired using an INCell Analyzer 6500 HS automatic imaging system with 20× objective lens (NA = 0.45) and 16 fields of view (FOV) per well. The numerical data were obtained using INCarta 1.13 and then analysed using GraphPad Prism 10.

Data set [2] relates to calreticulin (CALR) on 4T1 cells. The data set can be described thus: CALR exposure on the cell surface, fluorescence microscopy. Type of data set: cell-based, murine. To be noted: 4T1 monolayer; 8 and 16 μM; 24 h; Alexa Fluor 647 anti-CALR antibody, normalized to non-treated cells; n=2. The method, then:
We performed fluorescence microscopy using an Alexa Fluor 647 anti-CALR antibody for quantifying the CALR exposure on the surface of cells. Confluent monolayer 4T1, HeLa, HepG2 and MDA-MB-231 cell cultures were incubated with GS and GS-derived peptides for 24 h followed by fixation, staining with the antibody and microscopic observation. Using the images, we calculated the total levels of the fluorescence signal per cell in each sample. […] To examine the time dependence of the CALR exposure, cytofluorimetric experiments were conducted on the MDA-MB-231 cell line (Fig. 9) using an Alexa Fluor 647 anti-CALR antibody. In this experiment, 30 min, 3 h, 6 h and 24 h were the time points for monitoring the fraction of cells expressing CALR on their surface.
The cells were seeded (10 000 cells per well for 4T1; 20 000 cells per well for HeLa and MDA-MB-231; 30 000 cells per well for HepG2) in 200 μL of appropriate medium in a 96-well black-wall transparent-bottom plate (6055302, Revvity). After 24 h incubation, the medium was aspired and 100 μL of fresh medium was added. The compounds (64, 32, 16 and 8 μM for closed photoforms; 32, 16, 8 and 4 μM for open photoforms and GS) along with the negative (1% DMSO) control were prepared in DMEM and dispensed in 100 μL per well for 24 h. Then 50 μL of 20% paraformaldehyde (28908, Thermo Fisher) was added for 15 min for fixation. […]

For data set [3], the system named is HMGB1 released by HepG2 cells. The data set can be described thus: HMGB1 release, bioluminescence immunoassay (Lumit HMGB1) in the supernatant. To be noted: 64 μM, n=3. Type of data set: cell-based, human. The method, then: HMGB1 was quantified (using a calibration curve) by a bioluminescence assay in the supernatant.
For this, 25 000 cells per well of HepG2 were seeded in 200 μL of complete DMEM in a 96-well black-wall transparent-bottom plate (655090, Greiner). After 24 h, the medium was aspired, and 100 μL of DPBS was added for rinsing and then aspired. Then, 100 μL of Leibovitz L-15 medium that contained 10% FBS was added. After that, 2× concentrated solutions of tested compounds (64 and 8 μM, triplicates for each time point) were prepared in the same Leibovitz L-15 medium in an intermediate plate and dispensed in a volume of 100 μL to the cell-containing plate. The calibration curve was constructed using a HMGB1 stock solution (1000–0.24 ng mL^−1, 4-fold dilution, 7 points, n = 2) from Lumit HMGB1 (Human/Mouse) immunoassay kit (W6110, Promega) and dispensed in a 96-well white-wall transparent-bottom working plate (353377, Falcon). After 30 min, 3 h and 24 h, aliquots from the intermediate plate (tested compounds) were transferred to the working plate. […] The plate was shaken for 1 min and incubated for 1 h at room temperature. […] The luminescence signal was collected throughout the visible range (360–700 nm). The data were analyzed using GraphPad Prism 10.

Setting [4] is: 2D monolayer, Table S1 series (with LMB033).
[5] abbreviates: monolayer (2D), Table S2 series (with LMB002).

`CC(C)C[C@@H]1NC(=O)[C@H](CCCN)NC(=O)[C@H](C(C)C)NC(=O)[C@@H]2CCCN2C(=O)[C@@H](Cc2ccccc2)NC(=O)[C@H](CC(C)C)NC(=O)[C@H](CCCN)NC(=O)[C@H](C(C)C)NC(=O)[C@@H]2CCCN2C(=O)[C@@H](Cc2ccccc2)NC1=O` [Gramicidin S, gramicidin S] (cyclo(V[Orn]L[dF]PV[Orn]L[dF]P)): in data set [1] (setting [4]), the IC50 at 10 min was 12.9 ± 0.4 µM, the IC50 at 1 h turned out to be 11.6 ± 0.1 µM, the IC50 at 24 h stood at 8.3 ± 0.2 µM and the IC50 at 72 h was determined as 8.4 ± 0.7 µM. In data set [1] (setting [5]), the IC50 at 10 min came out at 15.4 ± 0.1 µM, the IC50 at 1 h turned out to be 12.7 ± 0.2 µM, the IC50 at 24 h was 10.4 ± 0.1 µM and the IC50 at 72 h was 11.1 ± 0.1 µM. Also, the “increase of CALR exposure” value in data set [2] turned out to be 3 fold. In addition, in data set [3] (30 min post-treatment, interpolated from calibration curve), the “HMGB1 detected in the supernatant” value worked out at 50 ng/mL. In addition, in data set [3] (at 3 h, constant up to 24 h), the “HMGB1 detected in the supernatant” value worked out at 10 ng/mL.
